Here are results for 10 molecules from ChEMBL document CHEMBL3045345, “Computer simulation of the in vitro and in vivo anti-inflammatory activities of dihydropyrimidines acid derivatives through the inhibition of cyclooxygenase-2” (Med Chem Res, 2013).

Test [1] relates to Rattus norvegicus. The test can be described thus: Anti-inflammatory activity in Rattus norvegicus (rat) assessed as inhibition of carrageenan-induced paw edema at 100 mg/kg, po treated 60 min prior to carrageenan injection measured after 1 to 5 hr. It counts as functional. In general terms: In the carrageenan paw model, swelling and tenderness develop within hours.
The target of test [2] is T1, Prostaglandin G/H synthase 1 (Ovis aries, UniProt P05979).
T1 sequence (P05979 whole entry): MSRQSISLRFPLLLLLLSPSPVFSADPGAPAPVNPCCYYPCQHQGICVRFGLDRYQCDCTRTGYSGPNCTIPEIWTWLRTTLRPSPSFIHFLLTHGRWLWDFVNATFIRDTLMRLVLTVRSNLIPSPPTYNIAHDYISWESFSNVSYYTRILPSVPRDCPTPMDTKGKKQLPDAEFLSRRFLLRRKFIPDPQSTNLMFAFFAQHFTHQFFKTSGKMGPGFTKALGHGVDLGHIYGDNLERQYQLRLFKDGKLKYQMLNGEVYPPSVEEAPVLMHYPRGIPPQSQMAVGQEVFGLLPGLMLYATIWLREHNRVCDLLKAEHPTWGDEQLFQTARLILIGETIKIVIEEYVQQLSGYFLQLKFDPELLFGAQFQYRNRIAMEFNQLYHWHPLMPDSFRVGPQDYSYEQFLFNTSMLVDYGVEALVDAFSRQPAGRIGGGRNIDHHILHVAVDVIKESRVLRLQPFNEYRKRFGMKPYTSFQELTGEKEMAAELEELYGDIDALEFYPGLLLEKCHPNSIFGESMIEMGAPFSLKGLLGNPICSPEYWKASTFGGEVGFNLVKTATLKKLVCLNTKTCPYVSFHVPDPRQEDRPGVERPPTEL
Description: Inhibition of Ovis aries (sheep) COX-1 assessed as decrease in PGF2a production from PGH2 upon reduction with stannous chloride using arachidonic acid as substrate pre-incubated with enzyme for 5 min prior to substrate addition by enzyme immunoassay.

In test [3] the test system is Rattus norvegicus. Description: Anti-inflammatory activity in Rattus norvegicus (rat) assessed as inhibition of carrageenan-induced paw edema at 100 mg/kg, po treated 60 min prior to carrageenan injection measured after 1 to 5 hr relative to ibuprofen. It counts as functional.

For orientation: inhibition in vivo means the percentage by which the read-out fell short of the control. In general, IC50 refers to the point on the concentration scale where inhibition reaches its midpoint.

SMILES strings stand for the structures. Calls of active or inactive are those of the source. The calls are words filed in the database; no cut-off is given here.

Turning to `COc1ccc(/C=C/C2=C(C(=O)O)C(c3ccc(OC)cc3)NC(=S)N2)cc1` (centres undefined), the inhibition in vivo at 100 mg/kg in test [1] and in test [3] was 38% throughout. Further, the IC50 in test [2] stood at 14.3 µM.
In the case of `CC(C)Cc1ccc(C(C)C(=O)O)cc1` (centres undefined) [IBUPROFEN], the inhibition in vivo at 100 mg/kg in test [1] is 56%.
For `O=C1NC(/C=C/c2ccc(O)cc2)=C(C(=O)O)C(c2ccc(O)cc2)N1` (centres undefined), the inhibition in vivo at 100 mg/kg in test [1] was 12%.
Same read-out and setting: the value for `O=C1NC(/C=C/c2ccccc2)=C(C(=O)O)C(c2ccccc2)N1` (centres undefined) was 16%.
As for `O=C(O)C1=C(/C=C/c2ccc(O)cc2)NC(=S)NC1c1ccc(O)cc1` (centres undefined), in test [1], the inhibition entry is “inactive”.
With `COc1ccc(/C=C/C2=C(C(=O)O)C(c3ccc(OC)cc3)NC(=O)N2)cc1` (centres undefined), the figures for the inhibition in vivo at 100 mg/kg in test [1] and in test [3] were 23% and 41%, respectively. In test [2], the IC50 was 14.7 µM.
As for `CN(C)c1ccc(/C=C/C2=C(C(=O)O)C(c3ccc(N(C)C)cc3)NC(=O)N2)cc1` (centres undefined), the inhibition result in test [1] is “inactive”.
Regarding `O=C1NC(/C=C/c2ccc([N+](=O)[O-])cc2)=C(C(=O)O)C(c2ccc([N+](=O)[O-])cc2)N1` (centres undefined), the inhibition entry in test [1] is “inactive”.
Same read-out and setting: the value for `CN(C)c1ccc(/C=C/C2=C(C(=O)O)C(c3ccc(N(C)C)cc3)NC(=S)N2)cc1` (centres undefined) was “inactive”; that for `O=C(O)C1=C(/C=C/c2ccccc2)NC(=S)NC1c1ccccc1` (centres undefined) was “inactive”.
